Results filed as inconclusive are left out.
Test system: MX-1 breast xenograft, nude mice, tumor weight T/C
Assay: NCI In Vivo Anticancer Drug Screen. Data for tumor model Human Mammary Carcinoma MX-1 Xenograft (intrarenal inoculation) in NU/NU Swiss (nude) mice
Details: endpoint: mean tumor weight change, schedule: Q04DX003 (sc), vehicle: suspension in saline, higher = larger tumour
In short: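 Compound dosed to mice with transplantable tumor; vehicle group as control. Endpoint survival or tumour size, reported as T/C.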

Row | Compound | T/C (dose: 5.0 mg/kg/injection) | T/C (dose: 10.0 mg/kg/injection) | T/C (dose: 20.0 mg/kg/injection) | T/C (dose: 300.0 mg/kg/injection) | T/C (dose: 600.0 mg/kg/injection) | T/C (dose: 1200.0 mg/kg/injection)
1 | C[PH+](C)C.C[PH+](C)C.[Au] | 157 % of control | 156 % of control | 160 % of control |  |  | 
2 | N=c1nc2n(cc1F)[C@@H]1O[C@H](CO)[C@@H](O)[C@@H]1O2 |  |  |  | 104 % of control | 89 % of control | 117 % of control
